Measured values from patent US20120141597A1 (priority 2009, published 2012).

System: Leptosphaeria nodorum (LEPTNO)
Assay: In vitro fungitoxicity (growth inhibition) in copper-minus and copper-plus liquid medium
Type: cell-based
Settings: CuCl2 10 μM, no test compound, copper-plus vs copper-minus medium, across experiments
Protocol: In vitro fungitoxicity assays against Leptosphaeria nodorum (LEPTNO) were conducted using the liquid growth medium described by Coursen and Sisler (American Journal of Botany 1960, 47, 541-549) except that copper micronutrient, normally included as CuSO4, was omitted. The medium, termed “copper-minus”, was prepared by dissolving 10 g glucose, 1.5 g K2HPO4, 2 g KH2PO4 and 1 g (NH4)2SO4 in 1 liter of deionized water and treating the solution with 0.5 g Chelex 100 resin (Bio-Rad Analytical grade, 50-100 mesh, sodium form, cat#142-2822) by stirring at room temperature for 1 h. MgSO4.7H2O (0.5 g) was added, and stirring was continued for a further hour. Trace elements (minus CuSO4), and vitamins described by Coursen and Sisler were added from concentrated stock solutions and the entire medium was sterilized by filtration. […]
LEPTNO was grown on potato dextrose agar in 9 cm diameter petri dishes for 7 days. […] The spores were resuspended in copper-minus medium, and the suspension adjusted to 2×10^5 spores per mL Microtiter plates were inoculated with 100 μL of this spore suspension and the plates incubated at 25° C. for 72 h before assessing fungal growth by measuring light scattering in a NepheloStar plate reader. Growth inhibition was determined by comparing growth in the presence of test compound with growth in control wells lacking test compound. […]

O.O.[Cl][Cu][Cl] [CuCl2, CuCl2.2H2O] was tested, and the “LEPTNO % Inhn. attributed to copper chloride alone” value was 7.1 ± 6.0%.
